Results on four compounds are retold here after patent US20130231366A1, “Use of a Novel Alpha-7 Nachr Antagonist to Suppress Pathogenic Signal Transduction in Cancer and Aids” (UNIVERSITY OF KENTUCKY RESEARCH FOUNDATION, priority 2008, published 2013).

Holding throughout (assay type): cell-based
The subject of assay [1] is Type II cells in rat medial septum. The assay can be described thus: Patch-clamp recording of ACh-evoked responses of medial septal neurons, Type II cells. The procedure:
(§1) All procedures involving rats were approved by the University of Florida IACUC and were in accord with the NIH Guide for the Care and Use of Laboratory Animals. Male Sprague Dawley rats (post-natal day 12-25) were anesthetized with Halothane (Halocarbon Laboratories, River Edge N.J.) and swiftly decapitated. Transverse ([…]) whole brain slices were prepared using a vibratome (Pelco, Redding, Calif.) and then placed in a high Mg^2+/low Ca^2+ ice-cold artificial cerebral spinal fluid (ACSF) containing (in mM) 124 NaCl, 2.5 KCl, 1.2 NaH2PO4, 2.5 MgSO4, 10 D-glucose, 1 CaCl2, and 25.9 NaHCO3, saturated with 95% O2-5% CO2. Slices were incubated at 30° C. for 30 minutes and then left at room temperature until they were transferred to a submersion chamber (Warner Instruments, Hamden, Conn.) for recording. During experiments, slices were perfused at a rate of 2 ml/min with normal ACSF containing (in mM) 126 NaCl, 3 KCl, 1.2 NaH2PO4, 1.5 MgSO4, 11 D-glucose, 2.4 CaCl2, 25.9 NaHCO3, and 0.004 atropine sulfate, saturated with 95% 02-5% CO2 at 30° C. Cells were visualized with infrared differential interference contrast microscopy using a Nikon E600FN microscope. Patch-clamp recording pipettes were pulled from borosilicate glass (Sutter Instruments, Novato, Calif.) using a Flaming/Brown micropipette puller (P-97; Sutter Instruments, Novato, Calif.). Recording pipettes were filled with an internal solution of (in mM) 125K-gluconate, 1 KCl, 0.1 CaCl2, 2 MgCl2, 1 EGTA, 2 MgATP, 0.3 Na3GTP, and 10 HEPES (pH adjusted to 7.3 with KOH). The resistance of the recording pipette when filled with the internal solution was 3-5 MΩ. Cells were held at −70 mV, and a −10 in V/10 ms test pulse was used to determine access resistance, input resistance, and whole-cell capacitance. Cells with access resistances >60 MΩ or those requiring holding currents >200 pA were not included in the final analyses. Signals were digitized using an Axon Digidata1322A and sampled at 20 kHz on a Dell computer using Clampex version 8 or 9. Data analysis was done with Clampfit version 8 or 9 (Axon Instruments, Union City, Calif.), Excel 2000 (Microsoft, Seattle, Wash.), and GraphPad/Prism version 4.02 (Graphpad Software, San Diego, Calif.). Data are reported as mean±SEM. Statistical analyses were performed using two-tailed Student's t-test and one-way analysis of variance (ANOVA).
(§2) Single-barrel pipettes were pulled from borosilicate glass with an outer diameter (o.d.) and inner diameter (i.d.) of 1.5 mm and 0.86 mm, respectively (Sutter Instrument, Novato, Calif.). Pipette opening size of the single barrel was typically 2-3 μm. Double-barrel pipettes were pulled from borosilicate theta glass with an o.d. of 1.5 mm; pipette opening size was around 3-4 μm. The application pipette was usually placed within 10-15 μm of the cell soma.
(§3) In experiments in which AQA analogs were bath-applied, for each cell, four ACh baseline-evoked responses were recorded before bath application of the antagonist. ACh-evoked responses were then recorded for 13-22 min in the presence of the AQA analog. Each analog was bath-applied at a final concentration of 1 μm. In some septum experiments, dihydro-β-erythroidine (DHβE) was also bath-applied at a final concentration of 1 μm.
Neurons in rat medial septum vary in their nAChR-mediated responses. Some neurons (Type I cells) have relatively fast transient ACh-evoked responses, while others (Type II cells) have slower ACh-evoked responses (Thinschmidt et al., 2005a).

The target in another assay is T1, rat α7 nAChRs (Rattus norvegicus, UniProt Q05941).
T1 construct: expressed in transfected cells; host or cells: Xenopus laevis oocytes injected with subunit cRNA
The assay can be described thus: Voltage-clamp recording in Xenopus oocytes expressing rat α7 nAChRs. The settings on record: for Imax of ACh concentration-response in the presence of antagonist: ACh alone Imax=1; for recovery of responses to ACh alone after co-application: 5 min washout; for effect of voltage on inhibition of α7 receptors: −40 or −80 mV, 60 μM ACh; for inhibition at 1 µM: 1 μM tPyQB. The procedure: (§4) For recombinant nAChR studies, mature (>9 cm) female Xenopus laevis African frogs (Nasco, Ft. Atkinson, Wis.) were used as a source of oocytes. Prior to surgery, frogs were anesthetized by placing the animal in a 1.5 g/l solution of MS222 (3-aminobenzoic acid ethyl ester) for 30 min. Oocytes were removed from an incision made in the abdomen. All procedures involving frogs were approved by the University of Florida Institutional Animal Care and Use Committee (IACUC).
(§5) Stage 5 oocytes were then isolated and injected with 50 n1 (5-20 ng) each of the appropriate subunit cRNAs. The rat neuronal nAChR clones were obtained from Dr. Jim Boulter (UCLA, Los Angeles, Calif.). After linearization and purification of cloned cDNAs, RNA transcripts were prepared in vitro using the appropriate mMessage mMachine kit from Ambion (Austin, Tex.).
(§6) Experiments were conducted using OpusXpress 6000A (Molecular Devices, Union City Calif.). […] Net charge values were used to report inhibitory effects. […] Means and standard errors (SEM) were calculated from the normalized responses of at least four oocytes for each experimental concentration. Concentration-response data were fit to the Hill equation assuming negative Hill slopes.

A further assay has as its target T2, rat α4β2 nAChRs (Rattus norvegicus, UniProt P09483+P12390).
T2 construct: expressed in transfected cells; host or cells: Xenopus laevis oocytes injected with subunit cRNAs
The assay can be described thus: Voltage-clamp recording in Xenopus oocytes expressing rat α4β2 nAChRs. The conditions noted are these: for recovery of responses to ACh alone after co-application: 5 min washout. On the procedure: as §4, §5, §6

Assay [2] concerns the target T3, native α7 receptors on rat hippocampal interneurons (Rattus norvegicus, UniProt Q05941).
T3 construct: Native α7 Receptors on Rat Hippocampal Interneurons; from tissue; host or cells: interneurons of CA1 stratum radiatum in fresh rat brain slices
The assay can be described thus: Patch-clamp recording of ACh-evoked responses of hippocampal interneurons in brain slices. The conditions noted are these: 1 μM bath-applied; for reduction of ACh-evoked responses: 1 mM ACh. The procedure: as §1, §2, §3
Stable ACh-evoked responses were obtained from hippocampal interneurons in fresh brain slices and then applied 1 μM tPyQB, tPy2PiB, or tkP3BzPB to the bath. […]
A general note: Patch clamp records ionic current or voltage across a cell membrane.

The next assay deals with T4, rat α3β4 nAChRs (Rattus norvegicus, UniProt P04757+P12392).
T4 construct: expressed in transfected cells; host or cells: Xenopus laevis oocytes injected with subunit cRNAs
The assay can be described thus: Voltage-clamp recording in Xenopus oocytes expressing rat α3β4 nAChRs. The conditions noted are these: for recovery of responses to ACh alone after co-application: 5 min washout. On the procedure: as §4, §5, §6

Assay [3] concerns Type I cells in rat medial septum. The assay can be described thus: Patch-clamp recording of ACh-evoked responses of medial septal neurons, Type I cells. The procedure: as §1
Single-barrel pipettes were pulled from borosilicate glass with an outer diameter (o.d.) and inner diameter (i.d.) of 1.5 mm and 0.86 mm, respectively (Sutter Instrument, Novato, Calif.). […]
In experiments in which AQA analogs were bath-applied, for each cell, four ACh baseline-evoked responses were recorded before bath application of the antagonist. ACh-evoked responses were then recorded for 13-22 min in the presence of the AQA analog. […]

The mark [4] stands for this setting: 1 mM ACh+300 μM tkP3BzPB pressure co-application.

Molecules are shown by their SMILES. Like-named read-outs stand apart in the source and are kept apart here.

T2 sequence (P09483 31-630): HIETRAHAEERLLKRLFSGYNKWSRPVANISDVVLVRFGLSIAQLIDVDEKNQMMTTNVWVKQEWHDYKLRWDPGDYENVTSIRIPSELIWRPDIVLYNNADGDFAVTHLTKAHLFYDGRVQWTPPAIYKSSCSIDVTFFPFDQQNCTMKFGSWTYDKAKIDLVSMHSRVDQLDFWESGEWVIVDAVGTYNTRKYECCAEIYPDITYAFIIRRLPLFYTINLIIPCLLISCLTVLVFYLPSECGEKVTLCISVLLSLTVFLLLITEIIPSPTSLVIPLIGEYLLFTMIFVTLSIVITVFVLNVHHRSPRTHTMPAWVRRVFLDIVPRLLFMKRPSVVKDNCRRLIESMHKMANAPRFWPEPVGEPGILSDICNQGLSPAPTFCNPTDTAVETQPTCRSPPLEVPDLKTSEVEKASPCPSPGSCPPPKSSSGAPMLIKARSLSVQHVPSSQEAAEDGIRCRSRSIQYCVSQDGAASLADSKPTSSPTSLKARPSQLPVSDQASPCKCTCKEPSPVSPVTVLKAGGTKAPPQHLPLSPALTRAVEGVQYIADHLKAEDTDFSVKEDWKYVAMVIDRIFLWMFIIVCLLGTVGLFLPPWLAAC
T2 sequence (P12390 25-500): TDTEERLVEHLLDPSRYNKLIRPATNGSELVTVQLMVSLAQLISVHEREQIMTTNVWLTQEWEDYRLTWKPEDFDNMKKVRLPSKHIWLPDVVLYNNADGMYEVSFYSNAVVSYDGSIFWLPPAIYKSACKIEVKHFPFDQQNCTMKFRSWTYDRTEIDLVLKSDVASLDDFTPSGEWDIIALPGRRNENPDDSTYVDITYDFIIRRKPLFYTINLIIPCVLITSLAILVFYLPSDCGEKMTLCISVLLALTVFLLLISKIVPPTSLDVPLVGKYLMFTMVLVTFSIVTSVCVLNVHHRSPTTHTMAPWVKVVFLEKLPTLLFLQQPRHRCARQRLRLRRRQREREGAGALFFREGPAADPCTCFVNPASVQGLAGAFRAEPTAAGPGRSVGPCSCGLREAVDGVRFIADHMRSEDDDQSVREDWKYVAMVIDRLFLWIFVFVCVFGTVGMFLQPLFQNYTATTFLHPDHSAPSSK
T1 sequence (Q05941 23-502): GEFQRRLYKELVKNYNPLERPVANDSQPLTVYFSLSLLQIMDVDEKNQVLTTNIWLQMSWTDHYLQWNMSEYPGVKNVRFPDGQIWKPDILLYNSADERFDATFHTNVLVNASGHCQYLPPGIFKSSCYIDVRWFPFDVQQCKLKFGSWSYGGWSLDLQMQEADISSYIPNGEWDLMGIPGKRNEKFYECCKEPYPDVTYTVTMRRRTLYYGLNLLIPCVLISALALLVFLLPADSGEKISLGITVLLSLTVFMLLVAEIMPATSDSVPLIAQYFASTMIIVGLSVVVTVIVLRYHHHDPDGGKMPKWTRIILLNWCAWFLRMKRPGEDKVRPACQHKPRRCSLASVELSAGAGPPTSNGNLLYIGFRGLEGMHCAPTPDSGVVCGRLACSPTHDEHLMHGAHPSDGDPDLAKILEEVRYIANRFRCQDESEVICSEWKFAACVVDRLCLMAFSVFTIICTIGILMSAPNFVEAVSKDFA
T3 sequence (Q05941 23-502): as above
T4 sequence (P04757 26-499): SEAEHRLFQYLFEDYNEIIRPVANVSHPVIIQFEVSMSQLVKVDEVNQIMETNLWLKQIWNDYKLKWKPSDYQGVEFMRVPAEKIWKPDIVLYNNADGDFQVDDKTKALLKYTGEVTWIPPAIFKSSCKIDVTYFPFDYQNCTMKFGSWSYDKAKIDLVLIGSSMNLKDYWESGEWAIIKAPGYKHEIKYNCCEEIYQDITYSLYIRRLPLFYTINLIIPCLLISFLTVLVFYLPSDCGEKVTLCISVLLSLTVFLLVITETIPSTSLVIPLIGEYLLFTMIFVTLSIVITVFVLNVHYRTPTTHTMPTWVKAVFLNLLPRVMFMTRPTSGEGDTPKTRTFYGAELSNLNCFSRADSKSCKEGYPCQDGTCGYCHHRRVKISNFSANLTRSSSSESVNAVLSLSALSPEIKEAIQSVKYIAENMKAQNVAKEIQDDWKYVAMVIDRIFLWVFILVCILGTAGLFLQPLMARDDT
T4 sequence (P12392 21-495): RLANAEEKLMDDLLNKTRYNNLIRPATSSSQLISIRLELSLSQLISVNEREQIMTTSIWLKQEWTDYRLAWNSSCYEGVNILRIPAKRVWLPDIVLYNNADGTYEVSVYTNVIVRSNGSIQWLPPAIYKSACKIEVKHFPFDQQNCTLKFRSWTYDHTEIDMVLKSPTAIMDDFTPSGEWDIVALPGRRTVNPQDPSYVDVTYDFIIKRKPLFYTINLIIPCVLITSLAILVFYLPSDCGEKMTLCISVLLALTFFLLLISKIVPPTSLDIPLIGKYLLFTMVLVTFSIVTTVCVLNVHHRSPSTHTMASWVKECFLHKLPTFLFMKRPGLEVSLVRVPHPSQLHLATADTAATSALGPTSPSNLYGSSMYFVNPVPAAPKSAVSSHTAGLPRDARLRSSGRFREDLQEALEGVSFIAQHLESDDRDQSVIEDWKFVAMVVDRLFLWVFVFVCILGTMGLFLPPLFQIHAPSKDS

For the compound `CO[C@H]1CC=C2CCN3CCC4=C(CC(=O)OC4)[C@]23C1` [DHβE, dihydro-β-erythroidine, reference compound], in assay [1] (1 μM DHβE bath-applied), the “blockade of residual ACh-evoked responses following tkP3BzPB bath application” value is “largely sensitive to DHβE blockade”.
By IC50 is commonly meant the concentration that gives 50% inhibition. The inhibition is the relative decrease from the control value, in per cent. As to `Cc1cccc[n+]1CCCC#Cc1cc(C#CCCC[n+]2ccccc2C)cc(C#CCCC[n+]2ccccc2C)c1` [tPy2PiB, 1,3,5,-tri-{5-[1-(2-picolinium)]-pent-1-yn-1-yl}benzene tribromide], the “inhibition of net charge responses” value against rat α7 nAChRs (3 μM tPy2PiB, holding potential −40 mV) is recorded as “no significant inhibition”. The “Imax of ACh concentration-response in the presence of antagonist” value on rat α7 nAChRs (3 μM tPy2PiB, net charge) worked out at 0.84±0.02. For the same compound, the “recovery of responses to ACh alone after co-application” value (“recovery of responses to ACh alone” for short) at rat α7 nAChRs, on rat α4β2 nAChRs and at rat α3β4 nAChRs was “recovered fully” throughout. Moreover, the IC50 on rat α7 nAChRs (read-out: IC50 values, α7) stood at 6.3 ± 0.6 µM; on rat α4β2 nAChRs it was 103 ± 25 µM; at rat α3β4 nAChRs it was 10 ± 1.4 µM. The inhibition at 3 µM at rat α7 nAChRs (read-out: inhibition of net charge responses, 3 μM tPy2PiB, holding potential −80 mV) was 43 ± 3%. For the same compound, the “effect of voltage on inhibition of α7 receptors” value at rat α7 nAChRs is “significant effect of voltage”. Moreover, the “reduction of ACh-evoked responses” value in assay [2] is “no significant reduction”.
On to `C(#Cc1cc(C#CCCC[n+]2cccc3ccccc32)cc(C#CCCC[n+]2cccc3ccccc32)c1)CCC[n+]1cccc2ccccc21` [tPyQB, 1,3,5-tri-[5-(1-quinolinum)-pent-1-yn-1-yl]-benzene tribromide], for which the “Imax of ACh concentration-response in the presence of antagonist” value on rat α7 nAChRs (300 nM tPyQB, net charge) amounted to 0.40±0.01. For the same compound, the “inhibition of 60 μM ACh-evoked responses” value at rat α7 nAChRs (1 μM) is reported as “completely inhibit”. In addition, the results for the inhibition at 1 µM against rat α7 nAChRs (cells held at −40 mV) and against rat α7 nAChRs (−80 mV) were 83 ± 2% and 97.7 ± 0.1%, respectively. The “recovery of responses to ACh alone” value at rat α7 nAChRs, at rat α4β2 nAChRs and at rat α3β4 nAChRs was “recovered fully” throughout. Also, the IC50 turned out to be 0.13 ± 0.02 µM on rat α7 nAChRs (read-out: IC50 values, α7); 4.1 ± 1 µM at rat α4β2 nAChRs; 1 ± 0.1 µM on rat α3β4 nAChRs. The “effect of voltage on inhibition of α7 receptors” value on rat α7 nAChRs was “significant effect of voltage”. In addition, the “reduction of ACh-evoked responses” value in assay [2] is on record as “effectively reduced”.
As to `c1ccc(Cc2ccc[n+](CCCCCc3cc(CCCCC[n+]4cccc(Cc5ccccc5)c4)c(CCCCC[n+]4cccc(Cc5ccccc5)c4)cc3CCCCC[n+]3cccc(Cc4ccccc4)c3)c2)cc1` [tkP3BzPB, 1,2,4,5-tetra-{5-[1-(3-benzyl)pyridinium]pent-1-yl}benzenetetrabromide], in assay [3] (1 μM bath-applied), the “initial evoked response remaining (peak amplitude) after bath application” value amounted to 12±0.6% and the “net-charge evoked response after bath application” value was “fully abolished”. Besides, in assay [3] (setting [4]), the “average baseline net charge response after co-application” value is on record as 68±9% and the “average baseline peak response after co-application” value came to 72±6%. Besides, the “inhibition of 60 μM ACh-evoked responses” value at rat α7 nAChRs (100 nM, typical co-application protocol) is recorded as “virtually no inhibition”. Besides, on rat α7 nAChRs (3 μM for 20 s with or without 60 μM ACh, 5 minute washout), the “use-dependence of persistent inhibition” value is recorded as “not use-dependent”. Besides, on rat α7 nAChRs, the “recovery of responses to ACh alone” value was “decreasing recovery with increasing tkP3BzPB concentrations” and the “effect of voltage on inhibition of α7 receptors” value is reported as “no significant difference”. The same compound registered a recovery time constant on rat α7 nAChRs (after 1 μM co-applied with 60 μM ACh) of 26.6 ± 0.8 min. Moreover, the half-maximal inhibitory concentration (IC50) at rat α7 nAChRs (after 5 minutes wash following application at increasing concentrations, read-out: IC50 estimated for recovery data) was 1.9 ± 0.7 µM. Besides, the “time constant of recovery” value on rat α7 nAChRs (after application of 3 μM alone, repeated applications of 60 μM ACh) was 76 ± 3 min. On rat α7 nAChRs (read-out: inhibition of the ACh-evoked responses), the inhibition at 0.1 µM is ~80%. In addition, the half-maximal inhibitory concentration (IC50) on rat α7 nAChRs (simple co-application with 60 μM ACh, net charge, read-out: IC50 values, α7) worked out at 1 ± 0.1 µM. Besides, at rat α4β2 nAChRs, 48 ± 11 µM corresponded to half-maximal inhibition (IC50) and the “recovery of responses to ACh alone” value is “no significant residual inhibition”. Also, in assay [1] (1 μM bath-applied), the “baseline response (peak amplitude) at the end of the application” value turned out to be 59±1% and the “net-charge evoked response, of the baseline response, after bath application” value is listed as 79±2%. Besides, in assay [1] (setting [4]), the “average baseline net charge response after co-application” value was 93±10% and the “average baseline peak response after co-application” value amounted to 86±5%. Besides, in assay [2], the “reduction of ACh-evoked responses” value is listed as “effectively reduced”. In assay [2] (1 mM ACh pressure application), the “baseline net charge response remaining after bath application” value was found to be 0.4±0.7% and the “baseline peak response remaining after bath application” value was 4±0.2%. Moreover, at rat α3β4 nAChRs, the IC50 came out at 9.2 ± 1.2 µM and the “recovery of responses to ACh alone” value is “no significant residual inhibition”.
